Molecules are shown by their SMILES.

For one assay, the target named is T1, ALK (Homo sapiens, UniProt Q9UM73).
T1 construct: host or cells: baculovirus expression system
In words: ALK Kinase Assay (ELISA/TRF, PLC-γ substrate). In kind it is biochemical. As to conditions: ALK kinase inhibition, 1 μM ATP; read-out: ALK Potency. Put shortly:
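PLC-γ substrate coated at 10 μg/mL in TBS; reaction started with 30 ng/ml ALK, run 15 min at 37° C. Phosphoproduct detected by TRF with Eu-N1-labeled PT66 anti-phosphotyrosine antibody. IC50 from sigmoidal variable-slope fit of percent inhibition versus log concentration.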
On the technique in general: In an ELISA, binding on a coated surface is turned into a signal by an enzyme label.

Another assay addresses T2, JAK2 (Homo sapiens, UniProt O60674).
T2 construct: host or cells: baculovirus expression system
Briefly: Recombinant Human JAK2 Kinase Assay (TRF). In kind it is biochemical. As to conditions: JAK2 kinase inhibition, 0.2 μM ATP; read-out: JAK2 Potency. A digest of the protocol: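 Europium-labelled PY100 antibody reported tyrosine phosphorylation of a Neutravidin-captured biotinyl 15-mer peptide by JAK2 (baculovirus-expressed, 15 ng/ml). Conditions: 20 mM HEPES pH 7.2, 0.2 μM ATP, 1 mM MnCl2, 0.1% BSA, DMSO 2.5% final, 20 min at room temperature.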

T1 sequence (Q9UM73 19-1620): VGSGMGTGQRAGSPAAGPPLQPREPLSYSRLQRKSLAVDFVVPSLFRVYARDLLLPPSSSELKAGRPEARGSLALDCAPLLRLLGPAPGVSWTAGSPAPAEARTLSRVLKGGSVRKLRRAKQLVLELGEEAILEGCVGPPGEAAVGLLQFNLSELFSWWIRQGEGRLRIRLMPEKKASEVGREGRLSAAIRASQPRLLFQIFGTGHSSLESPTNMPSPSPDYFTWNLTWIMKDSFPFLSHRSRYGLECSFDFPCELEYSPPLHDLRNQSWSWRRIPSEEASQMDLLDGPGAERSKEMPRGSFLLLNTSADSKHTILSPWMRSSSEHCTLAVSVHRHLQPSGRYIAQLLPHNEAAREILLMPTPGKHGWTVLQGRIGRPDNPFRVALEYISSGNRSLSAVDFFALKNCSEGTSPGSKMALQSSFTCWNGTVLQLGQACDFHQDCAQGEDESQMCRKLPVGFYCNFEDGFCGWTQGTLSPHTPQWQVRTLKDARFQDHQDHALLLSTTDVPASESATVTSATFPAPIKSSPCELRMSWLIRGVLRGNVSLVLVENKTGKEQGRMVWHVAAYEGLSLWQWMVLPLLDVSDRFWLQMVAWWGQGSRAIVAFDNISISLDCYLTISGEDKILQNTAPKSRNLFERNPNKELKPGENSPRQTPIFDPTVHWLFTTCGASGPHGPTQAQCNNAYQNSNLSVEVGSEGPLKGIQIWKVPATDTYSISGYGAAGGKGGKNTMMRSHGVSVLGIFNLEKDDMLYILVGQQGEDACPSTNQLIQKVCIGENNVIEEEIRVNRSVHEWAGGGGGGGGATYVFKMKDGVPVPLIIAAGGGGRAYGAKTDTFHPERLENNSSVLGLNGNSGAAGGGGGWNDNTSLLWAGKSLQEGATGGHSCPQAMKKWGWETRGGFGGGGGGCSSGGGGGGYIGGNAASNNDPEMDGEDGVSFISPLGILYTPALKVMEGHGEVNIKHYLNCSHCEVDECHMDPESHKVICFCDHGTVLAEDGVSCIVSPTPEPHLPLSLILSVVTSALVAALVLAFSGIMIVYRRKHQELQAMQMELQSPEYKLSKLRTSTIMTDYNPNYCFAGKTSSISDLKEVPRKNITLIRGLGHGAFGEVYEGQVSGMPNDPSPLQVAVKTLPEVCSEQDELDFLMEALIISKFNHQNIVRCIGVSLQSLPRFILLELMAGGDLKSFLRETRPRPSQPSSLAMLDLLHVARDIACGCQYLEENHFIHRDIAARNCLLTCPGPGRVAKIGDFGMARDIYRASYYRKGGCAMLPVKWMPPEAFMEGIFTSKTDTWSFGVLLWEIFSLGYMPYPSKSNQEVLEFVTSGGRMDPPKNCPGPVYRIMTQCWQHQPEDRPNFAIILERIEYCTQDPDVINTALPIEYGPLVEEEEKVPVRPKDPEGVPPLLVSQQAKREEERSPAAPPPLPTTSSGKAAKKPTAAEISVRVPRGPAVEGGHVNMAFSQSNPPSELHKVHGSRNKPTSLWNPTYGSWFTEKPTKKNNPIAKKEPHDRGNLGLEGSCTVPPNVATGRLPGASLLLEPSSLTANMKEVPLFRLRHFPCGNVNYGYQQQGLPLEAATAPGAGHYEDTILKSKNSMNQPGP
T2 sequence (O60674 whole entry): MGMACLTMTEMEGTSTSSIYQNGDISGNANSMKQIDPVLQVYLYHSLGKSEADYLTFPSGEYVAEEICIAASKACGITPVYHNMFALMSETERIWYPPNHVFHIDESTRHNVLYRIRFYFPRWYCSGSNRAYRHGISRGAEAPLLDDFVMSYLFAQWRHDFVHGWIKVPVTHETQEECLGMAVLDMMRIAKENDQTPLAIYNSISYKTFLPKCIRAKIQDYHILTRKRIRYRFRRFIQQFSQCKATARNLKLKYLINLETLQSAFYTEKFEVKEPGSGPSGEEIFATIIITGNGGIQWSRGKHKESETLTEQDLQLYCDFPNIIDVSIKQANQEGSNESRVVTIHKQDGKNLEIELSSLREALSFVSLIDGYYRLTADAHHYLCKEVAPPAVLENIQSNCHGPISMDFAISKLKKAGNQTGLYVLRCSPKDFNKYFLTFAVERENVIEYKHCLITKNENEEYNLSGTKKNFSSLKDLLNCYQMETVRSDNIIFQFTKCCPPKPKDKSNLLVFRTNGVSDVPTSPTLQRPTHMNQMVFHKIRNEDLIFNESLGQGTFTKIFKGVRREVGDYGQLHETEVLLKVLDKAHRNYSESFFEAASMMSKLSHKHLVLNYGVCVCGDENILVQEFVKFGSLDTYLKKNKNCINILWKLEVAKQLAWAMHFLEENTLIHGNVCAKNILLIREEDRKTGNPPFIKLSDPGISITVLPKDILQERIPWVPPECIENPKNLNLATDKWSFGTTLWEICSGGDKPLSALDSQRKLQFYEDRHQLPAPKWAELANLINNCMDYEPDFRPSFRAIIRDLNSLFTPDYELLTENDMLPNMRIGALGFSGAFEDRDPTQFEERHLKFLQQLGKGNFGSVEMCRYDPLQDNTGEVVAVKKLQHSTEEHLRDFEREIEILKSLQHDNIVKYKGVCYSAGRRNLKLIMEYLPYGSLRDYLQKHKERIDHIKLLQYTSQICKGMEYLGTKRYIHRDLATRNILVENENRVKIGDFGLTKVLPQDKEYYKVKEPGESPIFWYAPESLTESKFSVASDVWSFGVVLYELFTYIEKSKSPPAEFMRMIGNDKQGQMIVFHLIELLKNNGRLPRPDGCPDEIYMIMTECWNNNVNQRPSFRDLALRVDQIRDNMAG

Consider `CN(c1cccc(-c2ccc3cnc(Nc4ccc(C5CCN(CCO)CC5)cc4)nn23)c1)S(C)(=O)=O` [Example 961, N-[3-(2-{4-[1-(2-Hydroxy-ethyl)-piperidin-4-yl]-phenylamino}-pyrrolo[2,1-f][1,2,4]triazin-7-yl)-phenyl]-N-methyl-methanesulfonamide], for which the IC50 is 100 to 1000 nM at ALK and less than 100 nM on JAK2.

In the case of `CC(=O)Nc1cc(Nc2ncc3ccc(-c4cnn(C)c4)n3n2)ccc1Cl` [Example 962, N-{2-Chloro-5-[7-(1-methyl-1H-pyrazol-4-yl)pyrrolo[2,1f][1,2,4]triazin-2-ylamino]-phenyl}-acetamide], the IC50 was 1000 to 10000 nM on ALK and less than 100 nM on JAK2.

As for `CC(C)C(=O)Nc1cccc(Nc2ncc3ccc(-c4cnn(C)c4)n3n2)c1` [Example 963, N-{3-[7-(1-Methyl-1H-pyrazol-4-yl)-pyrrolo[2,1-f][1,2,4]triazin-2-ylamino]-phenyl}-isobutyramide], the IC50 on ALK was 1000 to 10000 nM; on JAK2, less than 100 nM.

For the compound `Cn1cc(-c2ccc3cnc(Nc4cccc(-n5cccn5)c4)nn23)cn1` [Example 964, [7-(1-Methyl-1H-pyrazol-4-yl)pyrrolo[2,1f][1,2,4]triazin-2-yl]-(3-pyrazol-1-yl-phenyl)-amine], the IC50 on ALK is 1000 to 10000 nM; on JAK2, less than 100 nM.

As to `CNC(=O)c1cccc(Nc2ncc3ccc(-c4cnn(C)c4)n3n2)c1` [Example 965, N-Methyl-3-[7-(1-methyl-1H-pyrazol-4-yl)-pyrrolo[2,1-f][1,2,4]triazin-2-ylamino]-benzamide], the IC50 on ALK is 1000 to 10000 nM; on JAK2, less than 100 nM.

For `CC(=O)N1CCc2ccc(Nc3ncc4ccc(-c5cnn(C)c5)n4n3)cc21` [Example 966, 1-{6-[7-(1-Methyl-1H-pyrazol-4-yl)-pyrrolo[2,1-f][1,2,4]triazin-2-ylamino]-2,3-dihydro-indol-1-yl}-ethanone], the results for the IC50 at ALK and at JAK2 were 1000 to 10000 nM and less than 100 nM, respectively.

Take `Cn1cc(-c2ccc3cnc(Nc4cccc(N5CCCC5=O)c4)nn23)cn1` [Example 967, 1-{3-[7-(1-Methyl-1H-pyrazol-4-yl)-\pyrrolo[2,1-f][1,2,4]triazin-2-ylamino]-phenyl}-pyrrolidin-2-one]: the IC50 on ALK was 1000 to 10000 nM; on JAK2, less than 100 nM.

Take `CC(=O)N1CC(C)(C)c2ccc(Nc3ncc4ccc(-c5cnn(C)c5)n4n3)cc21` [Example 968, 1-{3,3-Dimethyl-6-[7-(1-methyl-1H-pyrazol-4-yl)-pyrrolo[2,1-f][1,2,4]triazin-2-ylamino]-2,3-dihydro-indol-1-yl}-ethanone]: the IC50 is 100 to 1000 nM on ALK and less than 100 nM on JAK2.

As to `CN1CCN(c2cccc(Nc3ncc4ccc(-c5cnn(C)c5)n4n3)c2)CC1` [Example 969, [3-(4-Methyl-piperazin-1-yl)-phenyl]-[7-(1-methyl-1H-pyrazol-4-yl)-pyrrolo[2,1-f][1,2,4]triazin-2-yl]-amine], the IC50 on ALK was 1000 to 10000 nM; on JAK2, less than 100 nM.

On to `CN1CCN(c2cccc(Nc3ncc4ccc(-c5cn[nH]c5)n4n3)c2)CC1` [Example 970, [3-(4-Methyl-piperazin-1-yl)-phenyl]-[7-(1H-pyrazol-4yl)-pyrrolo[2,1-f][1,2,4]triazin-2-yl]-amine], for which the IC50 on ALK is 100 to 1000 nM; on JAK2, less than 100 nM.

Regarding `CC(C)CCn1cc(-c2ccc3cnc(Nc4cccc(N5CCN(C)CC5)c4)nn23)cn1` [Example 971, {7-[1-(3-Methyl-butyl)-1H-pyrazol-4-yl]-pyrrolo[2,1-f][1,2,4]triazin-2-yl}-[3-(4-methyl-piperazin-1-yl)-phenyl]-amine], the IC50 at ALK was 1000 to 10000 nM; on JAK2 it was less than 100 nM.

As for `COCCn1cc(-c2ccc3cnc(Nc4cccc(N5CCN(C)CC5)c4)nn23)cn1` [Example 972, {7-[1-(2-Methoxy-ethyl)-1H-pyrazol-4-yl]-pyrrolo[2,1-f][1,2,4]triazin-2-yl}-[3-(4-methyl-piperazin-1-yl)-phenyl]-amine], the IC50 at ALK was 1000 to 10000 nM; at JAK2, less than 100 nM.

Turning to `COc1ccc(-c2ccc3cnc(Nc4ccc(Cl)c(CN5CCOCC5)c4)nn23)cn1` [Example 973, (4-Chloro-3-morpholin-4-ylmethyl-phenyl)-[7-(6-methoxy-pyridin-3-yl)-pyrrolo[2,1-f][1,2,4]triazin-2-yl]-amine], the IC50 was more than 10000 nM at ALK and less than 100 nM on JAK2.

In the case of `COc1ccc(-c2ccc3cnc(Nc4cccc(C#N)c4)nn23)cn1` [Example 974, 3-[7-(6-Methoxy-pyridin-3-yl)pyrrolo[2,1f][1,2,4]triazin-2-ylamino]-benzonitrile], the IC50 at ALK was 1000 to 10000 nM; on JAK2, less than 100 nM.

For the compound `COc1ccc(-c2ccc3cnc(Nc4cccc(NCC(N)=O)c4)nn23)cn1` [Example 975, 2-{3-[7-(6-Methoxy-pyridin-3-yl)-pyrrolo[2,1-f][1,2,4]triazin-2-ylamino]-phenylamino}-acetamide], the values for the IC50 at ALK and at JAK2 were 1000 to 10000 nM and less than 100 nM, respectively.

In the case of `CN1CCN(c2cccc(Nc3ncc4ccc(-c5cnn(CCCO)c5)n4n3)c2)CC1` [Example 976, 3-(4-{2-[3-(4-Methyl-piperazin-1-yl)-phenylamino]-pyrrolo[2,1-f][1,2,4]triazin-7-yl}-pyrazol-1-yl)-propan-1-ol], the results for the IC50 at ALK and at JAK2 were 100 to 1000 nM and less than 100 nM, respectively.

`CN1CCN(c2cccc(Nc3ncc4ccc(-c5cnn(CCC#N)c5)n4n3)c2)CC1` [Example 977, 3-(4-{2-[3-(4-Methyl-piperazin-1-yl)-phenylamino]-pyrrolo[2,1-f][1,2,4]triazin-7-yl}-pyrazol-1-yl)-propionitrile]: the values for the IC50 at ALK and at JAK2 were 100 to 1000 nM and less than 100 nM, respectively.

`CN1CCN(c2cccc(Nc3ncc4ccc(-c5cnn(CC(N)=O)c5)n4n3)c2)CC1` [Example 978, 2-(4-{2-[3-(4-Methyl-piperazin-1-yl)-phenylamino]-pyrrolo[2,1-f][1,2,4]triazin-7-yl}-pyrazol-1-yl)-acetamide]: the IC50 on ALK was 100 to 1000 nM; on JAK2, less than 100 nM.

As for `COc1ccc(-c2ccc3cnc(Nc4ccc5c(c4)NC(=O)CC5)nn23)cn1` [Example 979, 7-[7-(6-Methoxy-pyridin-3-yl)-pyrrolo[2,1-f][1,2,4]triazin-2-ylamino]-3,4-dihydro-1H-quinolin-2-one], the results for the IC50 on ALK and at JAK2 were 1000 to 10000 nM and less than 100 nM, respectively.

On to `COc1ccc(-c2ccc3cnc(Nc4ccc5c(c4)N(C)CCC5)nn23)cn1` [Example 980, [7-(6-Methoxy-pyridin-3-yl)-pyrrolo[2,1-f][1,2,4]triazin-2-yl]-(1-methyl-1,2,3,4-tetrahydro-quinolin-7-yl)-amine], for which the results for the IC50 on ALK and on JAK2 were more than 10000 nM and less than 100 nM, respectively.

Consider `COc1ccccc1-c1ccc2cnc(Nc3ccc4c(c3)NC(=O)CC4)nn12` [Example 981, 7-[7-(2-Methoxy-phenyl)-pyrrolo[2,1-f][1,2,4]triazin-2-ylamino]-3,4-dihydro-1H-quinolin-2-one], for which the values for the IC50 at ALK and on JAK2 were 100 to 1000 nM and less than 100 nM, respectively.

`COc1ccccc1-c1ccc2cnc(Nc3ccc4c(c3)N(C)CCC4)nn12` [Example 982, [7-(2-Methoxy-phenyl)-pyrrolo[2,1-f][1,2,4]triazin-2-yl]-(1-methyl-1,2,3,4-tetrahydro-quinolin-7-yl)-amine]: the IC50 on ALK is 1000 to 10000 nM; on JAK2, less than 100 nM.
